The record followed here is patent US20240277706A1, “METHODS AND COMPOSTITIONS FOR TARGETING PD-L1” (Aligos Therapeutics, Inc., priority 2023, published 2024).

For test [1], the target named is T1, PD-1/PD-L1 interaction (Homo sapiens, UniProt Q9NZQ7).
T1 construct: expressed in transfected cells; Jurkat cells (PD-1 and NFAT-luciferase)
In words: PD-1/PD-L1 NFAT Reporter Assay (Jurkat/CHO co-culture). Format: cell-based. As to conditions: Jurkat cells overexpressing PD-1 with NFAT luciferase, co-culture with PD-L1 expressing CHO cells, 6 hrs at 37° C. The method, then: Blocking the PD-1/PD-L1 interaction will release the inhibitory signal and results in TCR signaling and NFAT-mediated luciferase activity.
CHO cells expressing surface-bound anti-CD3 antibodies and PD-L1 were first seeded overnight and treated with the compounds. Jurkat cells overexpressing PD-1 and a luciferase construct under NFAT promoter were then immediately seeded on the monolayer of CHO cells. The co-culture was then incubated for 6 hrs at 37° C. Luciferase activity was assessed by adding the ONE-Glo reagent and measuring luminescence with a plate reader. EC50 values were determined from the fit of the dose-response curves.

Test [2] addresses PD-1/PD-L1 (Homo sapiens, UniProt Q9NZQ7). In words: PDL1/PD1 Binding Assay. The settings on record: PDL1-6×His 0.3 nM, PD1-Fc-Avi-Biotin 2.5 nM, acceptor/donor beads, Envision reader; read-out: PD-1/PD-L1 PPI IC50. As to the method:
Compounds to be tested were serially diluted in DMSO, and further diluted in assay buffer (25 mM Hepes pH 7.4, 150 mM NaCl, 0.005% Tween 20, BSA 0.01%). Diluted compounds were added to the wells with final concentration of DMSO at 1%. PDL1-6×His protein was added to the wells, mixed well with compound. The plates were incubated for 30 min at room temperature. PD1-Fc-Avi-Biotin protein was added to the wells. Final concentration of PDL1 and PD1 protein is 0.3 nM and 2.5 nM, respectively. After a binding time of 30 min at room temperature, Anti-6×His Acceptor beads (final concentration 20 ug/ml) were added to the wells, and the incubation continued for 1 h. Streptavidin Donor beads (final concentration 20 ug/mL) were added at reduced light. The plates were sealed with foil and incubated in the dark for additional 1 h or overnight before reading on an Envision reader. The IC50 values were determined by fitting the curves using a four-parameter equation in Graphpad Prism 8.

T1 sequence (Q9NZQ7 19-290): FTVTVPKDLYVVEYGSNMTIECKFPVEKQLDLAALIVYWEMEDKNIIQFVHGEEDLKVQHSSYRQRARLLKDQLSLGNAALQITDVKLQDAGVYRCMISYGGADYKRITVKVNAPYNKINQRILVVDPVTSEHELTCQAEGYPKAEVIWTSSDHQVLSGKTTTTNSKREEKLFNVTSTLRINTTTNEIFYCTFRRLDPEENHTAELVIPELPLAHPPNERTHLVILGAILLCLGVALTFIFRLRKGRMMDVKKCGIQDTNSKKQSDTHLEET
Sequence of PD-1/PD-L1 (Q9NZQ7 19-238 limits assumed): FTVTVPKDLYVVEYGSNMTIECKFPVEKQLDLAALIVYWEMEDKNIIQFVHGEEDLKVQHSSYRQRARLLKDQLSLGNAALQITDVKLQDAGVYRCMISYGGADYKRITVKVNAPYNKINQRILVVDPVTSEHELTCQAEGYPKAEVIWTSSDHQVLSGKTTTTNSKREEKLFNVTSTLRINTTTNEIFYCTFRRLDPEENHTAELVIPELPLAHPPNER

On to `COc1nc(-c2cccc(-c3cccc(NC(=O)c4ccnn(C)c4=O)c3Cl)c2Cl)ccc1CN1CC(c2nnn[nH]2)C1` [Compound C-26], for which the EC50 in test [1] is 0.01 to 0.1 µM. The IC50 in test [2] is at most 0.01 µM. The compound `COc1nc(-c2cccc(-c3cccc(NC(=O)c4ccnn(C)c4=O)c3Cl)c2Cl)ccc1CN1CCC(C(=O)O)CC1` [Compound C-43] showed an EC50 in test [1] of 0.01 to 0.1 µM. Also, in test [2], the IC50 was at most 0.01 µM.

With `CCOC(=O)C1CCN(Cc2ccc(-c3cccc(-c4cccc(NC(=O)c5ccnn(C)c5=O)c4Cl)c3Cl)nc2OC)CC1` [Compound C-51], the “Jurkat NFAT EC50” value in test [1] was “n.r”. For the same compound, the IC50 in test [2] was at most 0.01 µM. In the case of `COc1nc(-c2cccc(-c3cccc(NC(=O)c4ccnn(C)c4=O)c3Cl)c2Cl)ccc1CN1CCC(c2nnn[nH]2)CC1` [Compound C-95], the EC50 in test [1] is 0.01 to 0.1 µM. The IC50 in test [2] was at most 0.01 µM. As to `COc1nc(-c2cccc(-c3cccc(NC(=O)c4ccnn(C)c4=O)c3Cl)c2Cl)ccc1CN1CCC(C)(C(=O)O)CC1` [Compound C-96], the EC50 in test [1] fell in the range of 0.01 to 0.1 µM. Besides, the IC50 in test [2] was at most 0.01 µM.

The compound `COc1nc(-c2cccc(-c3cccc(NC(=O)c4ccnn(C)c4=O)c3Cl)c2Cl)ccc1CN1CCC(F)(C(=O)O)CC1` [Compound C-97] registered an EC50 in test [1] of 0.01 to 0.1 µM. Also, in test [2], the IC50 is at most 0.01 µM. As for `COc1nc(-c2cccc(-c3cccc(NC(=O)c4ccnn(C)c4=O)c3Cl)c2Cl)ccc1CN1CCC(OC)(C(=O)O)CC1` [Compound C-98], the EC50 in test [1] fell in the range of 0.01 to 0.1 µM. For the same compound, the IC50 in test [2] was at most 0.01 µM. In test [1], `COc1nc(-c2cccc(-c3cccc(NC(=O)c4ccnn(C)c4=O)c3Cl)c2Cl)ccc1CN1CC2CCC(C1)C2C(=O)O` (stereo not drawn) [Compound C-99] returned an EC50 of 0.1 to 1 µM.

The compound `COc1nc(-c2cccc(-c3cccc(NC(=O)c4ccnn(C)c4=O)c3Cl)c2Cl)ccc1CN1C[C@@H]2[C@H](C1)[C@H]2C(=O)O` [Compound C-100] displayed an EC50 in test [1] of 0.01 to 0.1 µM. Further, the IC50 in test [2] is at most 0.01 µM. `COc1nc(-c2cccc(-c3cccc(NC(=O)c4ccnn(C)c4=O)c3Cl)c2Cl)ccc1CN1CCC2(C(=O)O)CC2C1` (stereo not drawn) [Compound C-101] came in with an EC50 in test [1] of 0.01 to 0.1 µM. In addition, in test [2], the IC50 is at most 0.01 µM.

In test [1], `COc1nc(-c2cccc(-c3cccc(NC(=O)c4ccnn(C)c4=O)c3Cl)c2Cl)ccc1CN1CC2CC(C1)C2C(=O)O` (stereo not drawn) [Compound C-102] returned an EC50 of 0.01 to 0.1 µM. In test [2], the IC50 was at most 0.01 µM.

With `COc1nc(-c2cccc(-c3cccc(NC(=O)c4ccnn(C)c4=O)c3C)c2Cl)ccc1CN1CCC(C(=O)O)CC1` [Compound C-103], the concentration giving a half-maximal response (EC50) in test [1] was 0.01 to 0.1 µM. In test [2], the IC50 was at most 0.01 µM. `COc1nc(-c2cccc(-c3cccc(NC(=O)c4ccnn(C)c4=O)c3Cl)c2Cl)cnc1CN1CCC(C(=O)O)CC1` [Compound C-104] gave an EC50 in test [1] of 0.01 to 0.1 µM. In addition, the IC50 in test [2] is at most 0.01 µM. In test [1], `COc1nc(-c2cccc(-c3cccc(NC(=O)c4ccnn(C)c4=O)c3C)c2Cl)cnc1CN1CCC(C(=O)O)CC1` [Compound C-105] returned an EC50 of 0.01 to 0.1 µM. In addition, the IC50 in test [2] was at most 0.01 µM. For `COc1nc(-c2cccc(-c3cccc(NC(=O)c4ccnn(C)c4=O)c3Cl)c2Cl)ccc1CN1CCC(O)(C(=O)O)CC1` [Compound C-106], in test [1], the EC50 was 0.01 to 0.1 µM.

With `CCOC(=O)C1CCN(Cc2ncc(-c3cccc(-c4cccc(NC(=O)c5ccnn(C)c5=O)c4Cl)c3Cl)nc2OC)CC1` [Compound C-107], the EC50 in test [1] was in the range of 0.01 to 0.1 µM. Further, the IC50 in test [2] was at most 0.01 µM.
